Earlier results on 1 compound are cited in patent US8481483B2, “Cyclosporin analogues” (priority 2009, dated 2013).

The subject of series [1] is hepatitis C virus replication. Conditions: Antiviral Research 65(3):A41 (2005).
The next series concerns the target cyclophilin A (Homo sapiens, UniProt P62937).

cyclophilin A, sequence (P62937 whole entry, species assumed): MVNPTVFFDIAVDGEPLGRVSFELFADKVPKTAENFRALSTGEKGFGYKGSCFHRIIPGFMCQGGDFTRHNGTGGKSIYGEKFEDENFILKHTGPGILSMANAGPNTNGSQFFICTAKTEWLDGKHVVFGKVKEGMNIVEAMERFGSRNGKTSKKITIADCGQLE

For `C/C=C/C[C@@H](C)[C@@H](O)[C@H]1C(=O)N[C@@H](CC)C(=O)N(C)[C@H](C)C(=O)N(CC)[C@@H](C(C)C)C(=O)N[C@@H](C(C)C)C(=O)N(C)[C@@H](CC(C)C)C(=O)N[C@@H](C)C(=O)N[C@H](C)C(=O)N(C)[C@@H](CC(C)C)C(=O)N(C)[C@@H](CC(C)C)C(=O)N(C)[C@@H](C(C)C)C(=O)N1C` [DEBIO-025], the “inhibition of hepatitis C virus replication” value in series [1] is “potent and selective inhibition”. Further, the “binding affinity for cyclophilin A” value on cyclophilin A is “potent binding affinity”.
